Measurements published in US8263595B2, “Triazolopyridine compounds and their use as ask inhibitors” (Merck Serono SA, priority 2007, dated 2012).
Counter-ions that a name gives are not always drawn.

Target: T1, human recombinant ASK1 (Homo sapiens, UniProt Q99683)
T1 sequence (Q99683 1-1374): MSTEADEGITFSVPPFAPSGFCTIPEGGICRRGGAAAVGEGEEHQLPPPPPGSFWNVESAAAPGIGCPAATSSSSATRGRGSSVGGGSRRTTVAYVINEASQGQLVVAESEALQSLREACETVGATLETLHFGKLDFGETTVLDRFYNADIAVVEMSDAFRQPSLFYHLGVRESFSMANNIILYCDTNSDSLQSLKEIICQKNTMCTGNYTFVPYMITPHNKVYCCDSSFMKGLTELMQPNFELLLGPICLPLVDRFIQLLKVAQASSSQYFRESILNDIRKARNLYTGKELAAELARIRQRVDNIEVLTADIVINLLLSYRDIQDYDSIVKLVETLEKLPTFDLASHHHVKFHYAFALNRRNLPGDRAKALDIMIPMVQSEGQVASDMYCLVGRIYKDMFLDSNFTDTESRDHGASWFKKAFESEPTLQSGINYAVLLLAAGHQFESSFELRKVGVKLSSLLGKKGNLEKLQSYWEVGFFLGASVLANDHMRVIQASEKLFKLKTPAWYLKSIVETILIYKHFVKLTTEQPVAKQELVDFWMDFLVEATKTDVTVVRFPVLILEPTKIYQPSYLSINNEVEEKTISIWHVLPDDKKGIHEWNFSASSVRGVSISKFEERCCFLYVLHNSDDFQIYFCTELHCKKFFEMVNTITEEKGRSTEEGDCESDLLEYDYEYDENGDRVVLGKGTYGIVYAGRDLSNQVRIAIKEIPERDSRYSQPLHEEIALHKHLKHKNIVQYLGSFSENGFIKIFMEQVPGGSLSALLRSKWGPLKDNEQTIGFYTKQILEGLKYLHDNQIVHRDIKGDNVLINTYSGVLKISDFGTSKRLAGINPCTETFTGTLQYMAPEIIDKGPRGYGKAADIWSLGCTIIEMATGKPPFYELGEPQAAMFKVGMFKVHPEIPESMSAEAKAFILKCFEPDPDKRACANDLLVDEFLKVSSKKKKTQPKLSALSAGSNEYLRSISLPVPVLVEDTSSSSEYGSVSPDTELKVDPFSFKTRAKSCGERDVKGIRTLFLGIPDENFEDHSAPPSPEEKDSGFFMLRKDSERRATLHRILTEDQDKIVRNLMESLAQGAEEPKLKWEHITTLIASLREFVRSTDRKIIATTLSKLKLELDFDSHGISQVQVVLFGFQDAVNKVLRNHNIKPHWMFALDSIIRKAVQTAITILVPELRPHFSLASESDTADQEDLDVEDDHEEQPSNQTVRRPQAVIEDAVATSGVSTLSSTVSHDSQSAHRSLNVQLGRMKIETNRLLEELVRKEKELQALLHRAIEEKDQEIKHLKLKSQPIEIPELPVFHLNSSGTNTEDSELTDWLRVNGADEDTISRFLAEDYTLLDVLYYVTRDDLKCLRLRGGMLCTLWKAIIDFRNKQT
Assay: Enzyme inhibition assay (in vitro ASK1 assay), luciferase-based measurement of remaining ATP
Type: biochemical
Settings: human recombinant ASK1, MBP and ATP as substrates, 180 minutes at 30° C.; triplicates on at least 2 separate occasions
Experimental: Assays were performed in a 384 well plate (Corning, #3654) format, using the human recombinant ASK1 as an enzyme and MBP (myelin basic protein, Upstate/Millipore, #13-104) with ATP as substrates. Assay read out was the measurement of the amount of ATP remaining after stopping the reaction, using a luciferase-based kit from Cambrex.
Compounds to be tested were dissolved in 100% DMSO at a concentration of 10 mM. Subsequent dilutions were performed in 100% DMSO using a Biomek FX Workstation. 5 μL of diluted compound or vehicle (6% DMSO) was distributed to a 384 well plate. 5 μL of substrates (ATP 7.5 μM, MBP 450 ng/μL) diluted in ASK1 buffer (20 mM Tris HCl pH 7.4, 0.001% Brij35, 0.01% BSA, 5 mM MgCl2, 1 mM DL-Dithiothreitol) were added, followed by 5 μL at of human recombinant ASK1 enzyme (22.5 ng/mL) diluted in ASK1 buffer in order to start the reaction. The reaction ran for 180 minutes at 30° C. before the addition of 5 μL of stop solution (Cambrex, #LT23-231). 10 μL of Pklight ATP detection reagent (Cambrex #LT23-233) were added. After 120 min of incubation, luminescence was measured on a Perkin-Elmer Victor 2 spectrofluorimeter. The percentage of inhibition relative to the fluorescence observed in the presence of solvent (1% DMSO) alone was determined. The IC50 values for inhibition were determined in triplicates on at least 2 separate occasions.

| SMILES | IC50 [nM] |
| --- | --- |
| COCC(=O)Nc1nc2cccc(-c3ccoc3)n2n1 [Example 5, N-[5-(3-furyl)[1,2,4]triazolo[1,5-a]pyridin-2-yl]-2-methoxyacetamide] | 17000 ± 5000 |
| Cc1ccc(CNc2cccc3nc(NC(=O)c4cccnc4)nn23)o1 [Example 63, N-(5-{[(5-methyl-2-furyl)methyl]amino}[1,2,4]triazolo[1,5-a]pyridin-2-yl)nicotinamide] | 9860 |
| COc1cc(-c2ccc3nc(NC(=O)c4ccc(CN5CCCC5=O)cc4)nn3c2)ccc1O [Example 146, N-[6-(4-hydroxy-3-methoxyphenyl)[1,2,4]triazolo[1,5-a]pyridin-2-yl]-4-[(2-oxopyrrolidin-1-yl)methyl]benzamide] | 138 ± 30 |
| COCCN(C)Cc1ccc(C(=O)Nc2nc3cccc(NC4CCCCC4)n3n2)cc1 [Example 130, N-[5-(cyclohexylamino)[1,2,4]triazolo[1,5-a]pyridin-2-yl]-4-{[(2-methoxyethyl)(methyl)amino]methyl}benzamide] | 531 ± 18 |
| O=C(Nc1nc2cccc(-c3cn[nH]c3)n2n1)c1ccccc1 [Example 12, N-[5-(1H-pyrazol-4-yl)[1,2,4]triazolo[1,5-a]pyridin-2-yl]benzamide] | 14800 ± 200 |
| COc1cc(-c2ccc3nc(NC(=O)c4ccc(CN5CCCCC5)cc4)nn3c2)ccc1O [Example 144, N-[6-(4-hydroxy-3-methoxyphenyl)[1,2,4]triazolo[1,5-a]pyridin-2-yl]-4-(piperidin-1-ylmethyl)benzamide] | 2000 |
| CC(C)Nc1cc(C(F)(F)F)cc2nc(NC(=O)c3cccnc3)nn12 [Example 99, N-[5-(isopropylamino)-7-(trifluoromethyl)[1,2,4]triazolo[1,5-a]pyridin-2-yl]nicotinamide] | 42 ± 7 |
| O=C(Nc1nc2cc(C(F)(F)F)cc(NC3CCCCC3)n2n1)c1cccnc1 [Example 74, N-[5-(cyclohexylamino)-7-(trifluoromethyl)[1,2,4]triazolo[1,5-a]pyridin-2-yl]nicotinamide] | 120 ± 10 |
| CC(C)=Cc1cccc2nc(NC(=O)c3cccnc3)nn12 [Example 94, N-[5-(2-methylprop-1-en-1-yl)[1,2,4]triazolo[1,5-a]pyridin-2-yl]nicotinamide dihydrochloride] | 5900 |
| O=C(Nc1nc2cc(Cl)cc(NC3CCC3)n2n1)c1cccnc1 [Example 118, N-[7-chloro-5-(cyclobutylamino)[1,2,4]triazolo[1,5-a]pyridin-2-yl]nicotinamide] | 87 ± 6 |
| O=C(Nc1nc2cccc(-c3ccoc3)n2n1)c1ccc(C(F)(F)F)cc1 [Example 3, N-[5-(3-furyl)[1,2,4]triazolo[1,5-a]pyridin-2-yl]-4-(trifluoromethyl)benzamide] | 8000 ± 400 |
| CCC(CO)Nc1cccc2nc(NC(=O)c3ccccc3)nn12 (stereo not shown) [Example 50, N-(5-{[1-(hydroxymethyl)propyl]amino}[1,2,4]triazolo[1,5-a]pyridin-2-yl)benzamide] | 8000 ± 1000 |
| O=C(Nc1nc2cccc(NCC3CCCO3)n2n1)c1ccccc1 (stereo not shown) [Example 45, N-{5-[(tetrahydrofuran-2-ylmethyl)amino][1,2,4]triazolo[1,5-a]pyridin-2-yl}benzamide] | 3380 |
| COc1cc(-c2ccc3nc(NC(=O)c4cccnc4)nn3c2)ccc1O [Example 66, N-[6-(4-hydroxy-3-methoxyphenyl)[1,2,4]triazolo[1,5-a]pyridin-2-yl]nicotinamide hydrochloride] | 260 ± 10 |
| CN(C)Cc1ccc(C(=O)Nc2nc3cccc(NC4CCCCC4)n3n2)cc1 [Example 87, N-[5-(cyclohexylamino)[1,2,4]triazolo[1,5-a]pyridin-2-yl]-4-[(dimethylamino)methyl]benzamide] | 5960 |
| O=C(Nc1nc2cc(Cl)cc(NC3CCCCC3)n2n1)c1cccnc1 [Example 120, N-[7-chloro-5-(cyclohexylamino)[1,2,4]triazolo[1,5-a]pyridin-2-yl]nicotinamide] | 67 ± 12 |
| CCC(C)Nc1cc(Cl)cc2nc(NC(=O)c3ccc(NCCCO)nc3)nn12 (stereo not shown) [Example 169, N-[5-(sec-butylamino)-7-chloro[1,2,4]triazolo[1,5-a]pyridin-2-yl]-6-[(3-hydroxypropyl)amino]nicotinamide] | 119 ± 29 |
| COC(=O)[C@H]1CC[C@H](Nc2cc(C(F)(F)F)cc3nc(NC(=O)c4cccnc4)nn23)CC1 [Example 90, methyl trans-4-{[2-[(pyridin-3-ylcarbonyl)amino]-7-(trifluoromethyl)[1,2,4]triazolo[1,5-a]pyridin-5-yl]amino}cyclohexanecarboxylate] | 700 ± 100 |
| CC(C)(C)OC(=O)NCc1ccc(C(=O)Nc2nc3cccc(-c4ccoc4)n3n2)cc1 [Example 52, tert-butyl[4-({[5-(3-furyl)[1,2,4]triazolo[1,5-a]pyridin-2-yl]amino}carbonyl)benzyl]carbamate] | 1700 ± 200 |
| COc1cc(-c2ccc3nc(NC(=O)c4ccccc4)nn3c2)ccc1O [Example 56, N-[6-(4-hydroxy-3-methoxyphenyl)[1,2,4]triazolo[1,5-a]pyridin-2-yl]benzamide hydrochloride] | 990 ± 40 |
| O=C(Nc1nc2cccc(NC3CCCCCC3)n2n1)c1cccnc1 [Example 61, N-[5-(cycloheptylamino)[1,2,4]triazolo[1,5-a]pyridin-2-yl]nicotinamide dihydrochloride] | 180 ± 20 |
| O=C(Nc1nc2cccc(NC3CCCCC3)n2n1)c1ccc(NCCCO)nc1 [Example 132, N-[5-(cyclohexylamino)[1,2,4]triazolo[1,5-a]pyridin-2-yl]-6-[(3-hydroxypropyl)amino]nicotinamide] | 91 ± 26 |
| O=C(Nc1nc2cccc(NC3CCCCC3)n2n1)c1ccc(N2CCOCC2)nc1 [Example 86, N-[5-(cyclohexylamino)[1,2,4]triazolo[1,5-a]pyridin-2-yl]-6-morpholin-4-ylnicotinamide] | 110 ± 50 |
| COc1cc(-c2ccc3nc(NC(=O)c4ccc(CN(C)C)cc4)nn3c2)ccc1O [Example 147, 4-[(dimethylamino)methyl]-N-[6-(4-hydroxy-3-methoxyphenyl)[1,2,4]triazolo[1,5-a]pyridin-2-yl]benzamide] | 5500 |
| CN(C)Cc1ccc(C(=O)Nc2nc3cc(C(F)(F)F)cc(NC4CC4)n3n2)cc1 [Example 140, N-[5-(cyclopropylamino)-7-(trifluoromethyl)[1,2,4]triazolo[1,5-a]pyridin-2-yl]-4-[(dimethylamino)methyl]benzamide] | 1140 |
| COC(=O)CCC(=O)Nc1nc2cccc(-c3ccoc3)n2n1 [Example 7, methyl 4-{[5-(3-furyl)[1,2,4]triazolo[1,5-a]pyridin-2-yl]amino}-4-oxobutanoate] | 7000 ± 1000 |
| O=C(Nc1nc2cc(C(F)(F)F)cc(NCC3CC3)n2n1)c1cccnc1 [Example 89, N-[5-[(cyclopropylmethyl)amino]-7-(trifluoromethyl)[1,2,4]triazolo[1,5-a]pyridin-2-yl]nicotinamide] | 460 ± 50 |
| O=C(Nc1nc2cccc(NC3CCCOC3)n2n1)c1ccccc1 (stereo not shown) [Example 81, N-[5-(tetrahydro-2H-pyran-3-ylamino)[1,2,4]triazolo[1,5-a]pyridin-2-yl]benzamide] | 1660 ± 50 |
